From the supplement of paper PMC10307832

These cell lines were tested with CC1=C(N=C(N=C1N)[C@H](CC(=O)N)NC[C@@H](C(=O)N)N)C(=O)N[C@@H]([C@H](C2=CN=CN2)OC3C(C(C(C(O3)CO)O)O)OC4C(C(C(C(O4)CO)O)OC(=O)N)O)C(=O)N[C@H](C)[C@H]([C@H](C)C(=O)N[C@@H]([C@@H](C)O)C(=O)NCCC5=NC(=CS5)C6=NC(=CS6)C(=O)NCCC[S+](C)C)O [Bleomycin] + COc1cc2c(Oc3ccc(NC(=O)C4(C(=O)Nc5ccc(F)cc5)CC4)cc3F)ccnc2cc1OCCCN1CCOCC1 [Foretinib] (partner 0.25 µM) (assay: relative viability (nuclei count vs DMSO), 5 days (fraction); higher = more cells survive). Conditions: first compound 0.01 µM; main component drawn.
Procedure, shortened: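 One day after seeding in 1536-well plates, lung cancer cell lines were dosed by pin tool. Dosing was either single-drug or a fixed anchor-drug dose plus five library-drug doses (not always all listed) in √10 steps. After 5 days, nuclei were stained in one fix-and-stain step and counted on 4× images, and relative viability is the nuclei count of treated wells over that of vehicle wells, given as the median of duplicate plates.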

Cell Line	relative viability
NCI-H1623	0.758
NCI-H838	0.617
NCI-H1650	0.718
EBC-1	0.104
NCI-H1703	0.298
NCI-H1993	0.809
PC-14	0.773
LCLC-103H	0.683
NCI-H596	0.586
NCI-H2228	0.853
EMC-BAC-2	0.859
NCI-H2085	1.03
Calu-6	0.646
HCC-366	0.872
NCI-H1666	0.763
NCI-H647	0.482

Cell Line	relative viability
NCI-H2342	0.874
SK-MES-1	0.907
COR-L23	0.825
COR-L 105	0.895
IA-LM	1.09
ChaGo-K-1	0.831
A549	0.812
SW 900	0.629
NCI-H2009	0.775
NCI-H520	0.677
SW 1573	0.811
NCI-H1299	1.07
NCI-H2023	0.717
NCI-H1563	0.838
SK-LU-1	0.704
NCI-H661	0.896

Same assay, conditions: first compound 0.03162 µM; main component drawn

Cell Line	relative viability
NCI-H1623	0.942
NCI-H838	0.368
NCI-H1650	0.393
EBC-1	0.106
NCI-H1703	0.325
NCI-H1993	0.667
NCI-H2087	0.827
PC-14	0.566
LCLC-103H	0.765
NCI-H596	0.629
NCI-H2228	0.741
EMC-BAC-2	0.74
NCI-H2085	0.845
Calu-6	0.549
HCC-366	0.702
NCI-H1666	0.675
NCI-H647	0.308

Cell Line	relative viability
NCI-H2342	0.996
SK-MES-1	0.846
COR-L23	0.781
COR-L 105	1
IA-LM	0.96
ChaGo-K-1	0.75
A549	0.917
SW 900	0.386
NCI-H2009	1.29
NCI-H520	0.742
SW 1573	0.813
NCI-H1299	1.08
NCI-H2023	0.641
NCI-H1563	0.803
SK-LU-1	0.874
NCI-H661	0.924

Same assay, conditions: first compound 0.1 µM; main component drawn

Cell Line	relative viability
NCI-H1623	0.774
NCI-H838	0.274
NCI-H1650	0.254
EBC-1	0.107
NCI-H1703	0.306
NCI-H1993	0.796
NCI-H2087	0.872
PC-14	0.447
LCLC-103H	0.677
NCI-H596	0.464
NCI-H2228	0.695
EMC-BAC-2	0.63
NCI-H2085	0.692
Calu-6	0.29
HCC-366	0.337
NCI-H1666	0.533
NCI-H647	0.212

Cell Line	relative viability
NCI-H2342	1.03
SK-MES-1	0.765
COR-L23	0.412
COR-L 105	0.952
IA-LM	0.899
ChaGo-K-1	0.754
A549	0.635
SW 900	0.465
NCI-H2009	1.25
NCI-H520	0.743
SW 1573	0.748
NCI-H1299	0.934
NCI-H2023	0.522
NCI-H1563	0.734
SK-LU-1	0.815
NCI-H661	0.689

Same assay, conditions: first compound 0.3162 µM; main component drawn

Cell Line	relative viability
NCI-H1623	0.646
NCI-H838	0.201
NCI-H1650	0.188
EBC-1	0.106
NCI-H1703	0.283
NCI-H1993	0.644
NCI-H2087	0.205
PC-14	0.137
LCLC-103H	0.382
NCI-H596	0.354
NCI-H2228	0.274
EMC-BAC-2	0.35
NCI-H2085	0.461
Calu-6	0.132
HCC-366	0.0868
NCI-H1666	0.44
NCI-H647	0.0979

Cell Line	relative viability
NCI-H2342	0.698
SK-MES-1	0.357
COR-L23	0.154
COR-L 105	0.761
IA-LM	0.56
ChaGo-K-1	0.507
A549	0.182
SW 900	0.211
NCI-H2009	0.969
NCI-H520	0.37
SW 1573	0.468
NCI-H1299	0.497
NCI-H2023	0.245
NCI-H1563	0.647
SK-LU-1	0.461
NCI-H661	0.393

Same assay, conditions: first compound 1 µM; main component drawn

Cell Line	relative viability
NCI-H1623	0.418
NCI-H838	0.204
NCI-H1650	0.181
EBC-1	0.105
NCI-H1703	0.275
NCI-H1993	0.479
